Consider 1 molecule from patent publication US20110288072A1, “Use of ivabradine for obtaining medicaments intended for the treatment of endothelial dysfunction” (LES LABORATOIRES SERVIER, priority 2007, published 2011).

Each structure is given as a SMILES string.

Assay [1] has as its system dyslipidaemic mice, and rats with heart failure. Description: Cardiac frequency after 3 months' treatment in the animal models. The class given is in vivo, mouse, rat. The conditions noted are these: 10 mg/kg per day for 3 months.
A further assay deals with dyslipidaemic mice. In words: Endothelial function and compliance of isolated renal and cerebral arteries (myograph) in dyslipidaemic mice. The class given is in vivo, mouse. The conditions noted are these: 10 mg/kg per day for 3 months. The method, then: (§1) The impact of treatment with ivabradine on endothelial function was studied in two pathological animal models, dyslipidaemic mice, and rats with heart failure, on 4 different vascular beds, renal and cerebral arteries in the mouse, coronary and mesenteric arteries in the rats. Study of the endothelial function comprises measuring the capacity of the vessel to dilate in response to various stimuli, such as acetylcholine, or measuring the increase in flow in the vessel.
(§2) Some animals were treated with ivabradine, 10 mg/kg per day for 3 months. Dyslipidaemic mice, rats with heart failure, healthy mice (Wild type) and healthy rats, untreated, acted as controls. At the end of the treatment period, the arteries were isolated and mounted in a myograph in order to measure their diameter after the application of acetylcholine or to measure the increase in flow. In order to explore more closely the mechanism associated with endothelial dysfunction, inhibitors of the principal pathways of vasodilation were tested: a free-radical chelating agent, a nitrogen monoxide production inhibitor, a prostacyclin pathway inhibitor.
The compliance (capacity of the vessel to dilate as the transmural pressure increases) of the cerebral arteries of the mice was also evaluated.

A further assay concerns rats with heart failure. In words: Endothelial function of isolated coronary and mesenteric arteries (myograph) in rats with heart failure. The class given is in vivo, rat. The conditions noted are these: 10 mg/kg per day for 3 months. As to the method:
as §1, §2

Assay [2] relates to dyslipidaemic mice, and rats with heart failure. In words: Mechanism of endothelial dysfunction explored with inhibitors of the principal pathways of vasodilation. The assay is classed as in vivo, mouse, rat. The conditions noted are these: mechanism of the beneficial effects; 10 mg/kg per day for 3 months. The method, then: as §2

Turning to `COc1cc2c(cc1OC)CC(=O)N(CCCN(C)C[C@H]1Cc3cc(OC)c(OC)cc31)CC2` [ivabradine, 3-{3-[{[(7S)-3,4-dimethoxybicyclo [4.2.0]octa-1,3,5-trien-7-yl]-methyl}-(methyl)-amino]-propyl}-7,8-dimethoxy-1,3,4,5-tetrahydro-2H-3-benzazepin-2-one], the “reduction in cardiac frequency” value in assay [1] is on record as 10-20%. Also, in the assay with dyslipidaemic mice (DL mouse, FIG. 1C, D), the “endothelial dysfunction (capacity to dilate) in the cerebral artery” value is listed as “completely prevents entothelial dysfunction” and the “endothelial dysfunction (capacity to dilate) in the renal artery” value is on record as “completely prevents entothelial dysfunction”. For the same molecule, the “compliance of the isolated cerebral arteries” value in the assay with dyslipidaemic mice (treated mice) is “improved”. Besides, the “endothelial dysfunction (capacity to dilate) in the coronary artery” value with rats with heart failure (HF rat, FIG. 1A) was “completely prevents entothelial dysfunction”. Also, in the assay on rats with heart failure (treated HF rat compared with untreated HF rat, FIG. 1B), the “capacity of the mesenteric artery to dilate” value was “appreciably improved”. In addition, in assay [2], the nitrogen monoxide pathway entry is “preservation of the nitrogen monoxide pathway” and the oxidative stress entry is “decrease in oxidative stress”.
